Patent publication US11230535B2, “CFTR regulators and methods of use thereof” (THE REGENTS OF THE UNIVERSITY OF CALIFORNIA, priority 2015, dated 2022)
pEC50: −log10 of the molar value. “Also recorded” adds a separate entry of the source.

Assays:
[1] = system: mice; experiment: In vivo whole-gut transit time; parameters: species or system mouse
Description: Whole-gut transit time was determined using an orally administered marker (200 μL, 5% Evans Blue, 5% gum Arabic) and measuring the time of its appearance in stool. Mice were administered loperamide and CFTRact-J027 (10 mg/kg) or vehicle intraperitoneally at zero time. For ex vivo contractility measurements, mice were euthanized by avertin overdose (200 mg/kg, 2,2,2-tribromethanol, Sigma-Aldrich) and ileum and colon segments of ˜2 cm length were isolated and washed with Krebs-Henseleit buffer. The ends of the intestinal segments were tied, connected to a force transducer (Biopac Systems, Goleta, Calif., USA) and tissues were transferred to an organ chamber (Biopac Systems) containing Krebs-Henseleit buffer at 37° C. aerated with 95% O2, 5% CO2. Ileum and colon were stabilized for 60 min with resting tensions of 0.5 and 0.2 g respectively, and solutions were changed every 15 min. Effects of CFTRact-J027 on baseline and loperamide-suppressed isometric intestinal contractions were recorded.
In vivo intestinal transit and ex vivo intestinal contractility. Whole-gut transit time was determined using an orally administered marker (200 μL, 5% Evans Blue, 5% gum Arabic) and measuring the time of its appearance in stool. […] Effects of CFTRact-J027 on baseline and loperamide-suppressed isometric intestinal contractions were recorded.

[2] = system: mouse liver microsomes; experiment: In vitro metabolic stability in mouse liver microsomes; type: in vitro ADME
Description: (§1) CFTRact-J027 (5 μM) was incubated for specified times at 37° C. with mouse liver microsomes (1 mg protein/ml; Sigma-Aldrich) in potassium phosphate buffer (100 mM) containing 1 mM NADPH, as described. The mixture was then chilled on ice, and 0.5 ml of ice-cold ethyl acetate was added. Samples were centrifuged for 15 min at 3000 rpm, the supernatant evaporated to dryness, and the residue was dissolved in 100 μL mobile phase (acetonitrile:water, 3:1) for LC/MS and assayed as described above.
as §1, with “In vitro metabolic stability. CFTRact-J027” for “CFTRact-J027”

[3] = Pharmacokinetics in mice (plasma LC/MS); type: in vivo, mouse
Description: (§2) All animal experiments were approved by UCSF Institutional Animal Care and Use Committee. Female CD1 mice were treated with 10 mg/kg CFTRact-J027 (saline containing 5% DMSO and 10% Kolliphor HS 15) either intraperitoneally (ip) or orally. Blood was collected at 15, 30, 60, 150, 240 and 360 min after treatment by orbital puncture and centrifuged at 5000 rpm for 15 min to separate plasma. Plasma samples (60 μL) were mixed with 300 μL acetonitrile and centrifuged at 13000 rpm for 20 min, and 90 μL of the supernatant was used for LC/MS. The solvent system consisted of a linear gradient from 5 to 95% acetonitrile over 16 min (0.2 ml/min flow). Mass spectra was acquired on a mass spectrometer (Waters 2695 and Micromass ZQ) using electrospray (+) ionization, mass ranging from 100 to 1500 Da, cone voltage 40 V. Calibration standards were prepared in plasma from untreated mice to which known amounts of CFTRact-J027 were added.
as §2, with “Pharmacokinetics. All” for “All”

[4] = system: mouse colon; experiment: Short-circuit current in freshly harvested mouse colon; settings: freshly isolated mouse colon; read-out: EC50, increase in short-circuit current (Cl− secretion)
Description: Short-circuit current was measured in FRT cells stably expressing wild-type human CFTR cultured on porous filters as described. The basolateral solution contained 130 mM NaCl, 2.7 mM KCl, 1.5 mM KH2PO4, 1 mM CaCl2, 0.5 mM MgCl2, 10 mM glucose, and 10 mM Na-HEPES (pH 7.3, 37° C.). In the apical solution 65 mM NaCl was replaced by Na gluconate, and CaCl2 was increased to 2 mM, and the basolateral membrane was permeabilized with 250 μg/ml amphotericin B. Short-circuit current was measured in freshly harvested adult mouse colon at 37° C. using symmetrical Krebs-bicarbonate buffer.
Short-circuit current measurement. Short-circuit current was measured in FRT cells stably expressing wild-type human CFTR cultured on porous filters as described. The basolateral solution contained 130 mM NaCl, 2.7 mM KCl, 1.5 mM KH2PO4, 1 mM CaCl2, 0.5 mM MgCl2, 10 mM glucose, and 10 mM Na-HEPES (pH 7.3, 37° C.). In the apical solution 65 mM NaCl was replaced by Na gluconate, and CaCl2 was increased to 2 mM, and the basolateral membrane was permeabilized with 250 μg/ml amphotericin B. Short-circuit current was measured in freshly harvested adult mouse colon at 37° C. using symmetrical Krebs-bicarbonate buffer.

Nc1ccc([N+](=O)[O-])cc1-c1nc2ccccc2n(Cc2ccccc2)c1=O [CFTRact-J027, 3-(2-amino-5-nitrophenyl)-1-benzylquinoxalin-2(1H)-one]
whole-gut transit time ([1]; 10 mg/kg ip, loperamide-treated wild-type mice): normalized | whole-gut transit time in cystic fibrosis mice ([1]; CF mice): no effect | elimination half-life in microsomes ([2]; 5 μM, mouse liver microsomes, NADPH): ~21 min | original compound remaining at 60 min ([2]; 60 min): 7% | hepatic microsomal metabolism, in words ([2]; mouse liver microsomes, NADPH): rapid hepatic metabolism; also recorded: rapidly metabolized | serum elimination half-life ([3]; 10 mg/kg ip): ~16 min | serum concentration at 150 min ([3]; 10 mg/kg ip, 150 min): undetectable | bioavailability, in words ([3]; 10 mg/kg oral): very low bioavailability; also recorded: minimal bioavailability | blood levels ([3]; 10 mg/kg oral): < 200 nM | serum concentration at other time points ([3]; 10 mg/kg oral): undetectable | serum concentration at 30 min ([3]; 10 mg/kg oral, 30 min): 180 nM | pEC50 [4]: ~6.52
